SMILES strings stand for the structures. ± gives the expanded uncertainty stated by the source.

For series [1] the following is noted: Crystal.
Series [2] can be described thus: Solid-liquid equilibrium temperature. The note with it: Crystal, High pressure microscope.

In the case of `CCCCCCCCCCCCCCCCO` [1-hexadecanol], the Normal melting temperature was found to be 49.7 ± 1.3 °C in series [1] (DTA) and 49.1 ± 1.4 °C in series [1] (High pressure microscope). In addition, the Solid-liquid equilibrium temperature in series [2] (100 kPa) worked out at 322.2 ± 0.4 K; in series [2] (20000 kPa), 327.3 ± 0.5 K; in series [2] (40000 kPa), 332.4 ± 0.5 K; in series [2] (60000 kPa), 337.6 ± 0.5 K; in series [2] (80000 kPa) it was 342.7 ± 0.5 K.
With `CCCCCCCCCCCCCCCCCCO` [1-octadecanol], the Normal melting temperature is 58.2 ± 1.3 °C in series [1] (DTA) and 57.8 ± 1.4 °C in series [1] (High Pressure microscope). Moreover, the Solid-liquid equilibrium temperature in series [2] (100 kPa) is given as 330.9 ± 0.4 K; in series [2] (20000 kPa) it was 335.8 ± 0.5 K; in series [2] (40000 kPa) it was 340.9 ± 0.5 K; in series [2] (60000 kPa), 345.9 ± 0.5 K; in series [2] (80000 kPa), 350.6 ± 0.5 K.
With `CCCCCCCCCCCCCCO` [1-tetradecanol], the Normal melting temperature in series [1] (DTA) was 37.8 ± 1.3 °C; in series [1] (High pressure microscope) it was 37.5 ± 1.4 °C. The Solid-liquid equilibrium temperature in series [2] (100 kPa) is reported as 310.6 ± 0.4 K; in series [2] (20000 kPa), 314.2 ± 0.5 K; in series [2] (40000 kPa) it was 319 ± 0.5 K; in series [2] (60000 kPa) it was 323.8 ± 0.5 K; in series [2] (80000 kPa) it was 327.8 ± 0.5 K.
On to `CCCCCCCCCCCCO` [dodecan-1-ol], for which the Normal melting temperature in series [1] (DTA) was 24.7 ± 1.3 °C; in series [1] (High Pressure microscope), 23.8 ± 1.4 °C. Also, the Solid-liquid equilibrium temperature in series [2] (100 kPa) was 296.9 ± 0.4 K; in series [2] (20000 kPa) it was 300.5 ± 0.5 K; in series [2] (40000 kPa), 304.6 ± 0.5 K; in series [2] (60000 kPa), 308.4 ± 0.5 K; in series [2] (80000 kPa), 311.7 ± 0.5 K.
